Counter-ions that a name gives are not always drawn.
Biological target: T1, DNA polymerase α (Bos taurus, UniProt A0AAA9TD94)
T1 construct: from tissue; host or cells: bovine thymus
T1 sequence (A0AAA9TD94 1-1441): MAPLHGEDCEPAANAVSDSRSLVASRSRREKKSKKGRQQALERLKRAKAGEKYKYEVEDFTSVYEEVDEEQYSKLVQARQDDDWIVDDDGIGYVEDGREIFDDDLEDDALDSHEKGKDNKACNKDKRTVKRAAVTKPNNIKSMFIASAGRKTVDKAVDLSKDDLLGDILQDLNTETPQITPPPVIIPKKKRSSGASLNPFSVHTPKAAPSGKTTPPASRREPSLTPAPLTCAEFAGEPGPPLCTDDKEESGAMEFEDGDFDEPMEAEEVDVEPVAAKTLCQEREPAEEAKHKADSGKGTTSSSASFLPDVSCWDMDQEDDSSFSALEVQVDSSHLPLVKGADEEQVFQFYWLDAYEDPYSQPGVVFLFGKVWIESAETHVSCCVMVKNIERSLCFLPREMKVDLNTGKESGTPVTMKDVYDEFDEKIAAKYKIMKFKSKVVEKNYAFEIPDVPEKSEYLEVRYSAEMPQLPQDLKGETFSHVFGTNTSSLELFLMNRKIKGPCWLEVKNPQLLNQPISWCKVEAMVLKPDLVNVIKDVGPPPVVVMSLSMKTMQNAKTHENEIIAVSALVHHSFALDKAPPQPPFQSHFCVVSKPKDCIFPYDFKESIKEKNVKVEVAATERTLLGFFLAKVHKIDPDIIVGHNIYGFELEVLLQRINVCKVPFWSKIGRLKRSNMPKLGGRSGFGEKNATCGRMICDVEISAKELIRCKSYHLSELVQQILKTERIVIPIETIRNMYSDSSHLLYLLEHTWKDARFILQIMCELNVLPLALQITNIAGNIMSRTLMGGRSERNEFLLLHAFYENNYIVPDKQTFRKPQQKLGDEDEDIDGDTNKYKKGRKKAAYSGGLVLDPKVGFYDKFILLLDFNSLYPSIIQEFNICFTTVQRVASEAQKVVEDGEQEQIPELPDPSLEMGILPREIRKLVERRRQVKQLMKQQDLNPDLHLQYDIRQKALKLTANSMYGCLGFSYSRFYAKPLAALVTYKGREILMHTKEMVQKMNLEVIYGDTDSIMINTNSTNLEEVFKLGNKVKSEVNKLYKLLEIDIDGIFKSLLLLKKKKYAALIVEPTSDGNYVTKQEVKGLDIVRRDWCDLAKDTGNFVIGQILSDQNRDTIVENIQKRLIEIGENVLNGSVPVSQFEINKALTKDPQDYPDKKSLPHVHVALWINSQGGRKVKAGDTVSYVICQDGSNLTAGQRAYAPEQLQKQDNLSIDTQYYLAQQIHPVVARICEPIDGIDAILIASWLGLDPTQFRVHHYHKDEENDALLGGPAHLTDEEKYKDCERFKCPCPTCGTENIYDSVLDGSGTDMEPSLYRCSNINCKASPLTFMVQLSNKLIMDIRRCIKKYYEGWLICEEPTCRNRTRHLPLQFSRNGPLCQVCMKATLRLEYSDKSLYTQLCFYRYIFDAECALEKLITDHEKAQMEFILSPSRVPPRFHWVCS
Assay: Assay 1: inhibitory effect against DNA polymerase α ([3H]-dTTP incorporation)
Format: biochemical
Settings: DNA polymerase α from bovine thymus, 37° C., 60 minutes
Experimental: An assay on inhibitory effect against a DNA polymerase α was carried out in the following manner.
0.05 U of a DNA polymerase α purified and isolated from a bovine thymus by an immunoaffinity column was mixed with each of test compounds, sulfopyranosylacylglycerol (hereinafter, simply referred to as “SQAG”) derivatives, namely, SQAG 1, SQAG 2 and SQAG 3 (listed in table 1) dissolved in DMSO. Each mixture was added with a buffer containing inorganic salts for the enzymatic reaction, [^3H]-labeled dTTP and compounds for reaction containing a template DNA strand, and incubated at 37° C. for 60 minutes.
After the enzymatic reaction was quenched, the resultant reaction product was fixed on a dedicated filter and subjected to measurement by a liquid scintillation counter. The amount of enzymatically incorporated dTTP was calculated as a radiation dose (cpm) of [^3H]. Note that, each of the sulfopyranosylacylglycerol derivatives is a mixture of the S- and R-configurations with respect to an absolute configuration of the carbon of the 2-position of the glycerol moiety.

Row | Compound | IC50
1 | CCCC/C=C\CCCCCCCC(=O)OCC(O)CO[C@H]1O[C@H](CS(=O)(=O)O)[C@@H](O)[C@H](O)[C@H]1O (mixture of isomers) [SQAG1, 3-O-(6-deoxy-6-sulfo-α-D-glucopyranosyl)-1-o-myristoleoly-glycerol sodium salt] | 17.1 µM
2 | CCCCCC/C=C\CCCCCCCC(=O)OCC(O)CO[C@H]1O[C@H](CS(=O)(=O)O)[C@@H](O)[C@H](O)[C@H]1O (stereo partly drawn) [SQAG2, 3-O-(6-deoxy-6-sulfo-α-D-glucopyranosyl)-1-O-palmitoleoyl-glycerol sodium salt] | 9.54 µM
3 | CCCCCCCC/C=C\CCCCCCCC(=O)OCC(O)CO[C@H]1O[C@H](CS(=O)(=O)O)[C@@H](O)[C@H](O)[C@H]1O (stereo partly drawn) [SQAG3, 3-O-(6-deoxy-6-sulfo-α-D-glucopyranosyl)-1-O-oleoyl-glycerol Sodium Salt] | 3.31 µM

Source: patent US7148200B2, “Method for treating cancer” (Toyo Suisan Kaisha, Ltd., priority 1999, dated 2006)
